pIC50: −log10 of the molar value. Read-outs that look alike come from different tables or passages of the source.
Legend:
angiotensin II receptor = details: cited from earlier work; for angiotensin II antagonist activity: binding experiments, functional assays and in vitro / in vivo tests
pressor response to AII = assay: Assay C: In Vivo Intragastric Pressor Assay Response for AII Antagonists; set-up: species or system rat (male Sprague-Dawley); details: 3 mg/kg i.g., rat, AII 30 ng/kg bolus; for inhibition in vivo at 3 mg/kg: po
Procedure: Assay C: In Vivo Intragastric Pressor Assay Response for AII Antagonists of the Invention
Male Sprague-Dawley rats weighing 225-300 grams were anesthetized with methohexital (30 mg/kg, i.p.) and catheters were implanted into the femoral artery and vein. The catheters were tunneled subcutaneously to exit dorsally, posterior to the head and between the scapulae. The catheters were filled with heparin (1000 units/ml of saline). The rats were returned to their cage and allowed regular rat chow and water ad libitum. After full recovery from surgery (3-4 days), rats were placed in Lucite holders and the arterial line was connected to a pressure transducer. Arterial pressure was recorded on a Gould polygraph (mmHg). Angiotensin II was administered as a 30 ng/kg bolus via the venous catheter delivered in a 50 μl volume with a 0.2 ml saline flush. The pressor response in mmHg was measured by the difference from pre-injectionarterial pressure to the maximum pressure achieved. The AII injection was repeated every 10 minutes until three consecutive injections yielded responses within 4 mmHg of each other. These three responses were then averaged and represented the control response to AII. The test compound was suspended in 0.5% methylcellulose in water and was administered by gavage. The volume administered was 2 ml/kg body weight. The standard dose was 3 mg/kg. Angiotensin II bolus injections were given at 30, 45, 60, 75, 120, 150, and 180 minutes after gavage. The pressor response to AII was measured at each time point. The rats were then returned to their cage for future testing. A minimum of 3 days was allowed between tests. Percent inhibition was calculated for each time point following gavage by the following formula: [(Control Response-Response at time point)/Control Response]×100.

rabbit aortic rings = target: T1, rabbit aortic rings (Oryctolagus cuniculus, UniProt P34976); assay: Assay B: In Vitro Vascular Smooth Muscle-Response for AII (antagonist activity in rabbit aortic rings); assay type: cell-based, rabbit (male New Zealand white); details: antagonist 10^-5 M for 5 min, AII challenge
T1 construct: The thoracic aorta was removed, cleaned of adherent fat and connective tissue; from tissue; host or cells: thoracic aorta rings, endothelium removed, male New Zealand white rabbit
T1 sequence (P34976 1-359): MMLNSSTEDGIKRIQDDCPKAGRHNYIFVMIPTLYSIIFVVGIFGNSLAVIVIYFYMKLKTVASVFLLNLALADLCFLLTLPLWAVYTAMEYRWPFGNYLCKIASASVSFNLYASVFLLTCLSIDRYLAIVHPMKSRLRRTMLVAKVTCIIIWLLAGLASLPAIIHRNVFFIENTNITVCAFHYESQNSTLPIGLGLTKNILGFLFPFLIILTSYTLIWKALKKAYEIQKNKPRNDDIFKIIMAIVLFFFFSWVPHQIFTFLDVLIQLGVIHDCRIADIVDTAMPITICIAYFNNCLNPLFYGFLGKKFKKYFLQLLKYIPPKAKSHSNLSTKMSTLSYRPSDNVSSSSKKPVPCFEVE
Procedure: Assay B: In Vitro Vascular Smooth Muscle-Response for AII The compounds of the invention were tested for antagonist activity in rabbit aortic rings. Male New Zealand white rabbits (2-2.5 kg) were sacrificed using an overdose of pentobarbital and exsanguinated via the carotid arteries. The thoracic aorta was removed, cleaned of adherent fat and connective tissue and then cut into 3-mm ring segments. The endothelium was removed from the rings by gently sliding a rolled-up piece of filter paper into the vessel lumen. The rings were then mounted in a water-jacketed tissue bath, maintained at 37° C., between moveable and fixed ends of a stainless steel wire with the moveable end attached to an FT03 Grass transducer coupled to a Model 7D Grass Polygraph for recording isometric force responses. The bath was filled with 20 ml of oxygenated (95% oxygen/5% carbon dioxide) Krebs solution of the following composition (mM): 130 NaCl, 15 NaHCO3, 15 KCl, 1.2 NaH2 PO4, 1.2 MgSO4, 2.5 CaCl2, and 11.4 glucose. The preparations were equilibrated for one hour before approximately one gram of passive tension was placed on the rings. Angiotensin II concentration-response curves were then recorded (3×10^-10 to 1×10^-5 M). Each concentration of AII was allowed to elicit its maximal contraction, and then AII was washed out repeatedly for 30 minutes before rechallenging with a higher concentration of AII. Aorta rings were exposed to the test antagonist at 10^-5 M for 5 minutes before challenging with AII. Adjacent segments of the same aorta ring were used for all concentration-response curves in the presence or absence of the test antagonist. The effectiveness of the test compound was expressed in terms of pA2 values and were calculated according to H.O. Schild [Br. J. Pharmacol. Chemother., 2, 189-206 (1947)]. The pA2 value is the concentration of the antagonist which increases the EC50 value for AII by a factor of two. Each test antagonist was evaluated in aorta rings from two rabbits.

[1] = target: smooth muscle angiotensin II receptor; assay: Assay A: Angiotensin II Binding Activity (displacement of 125I-AII, rat uterine membrane preparation); details: rat uterine membranes, 25 °C, 60 min; read-out: IC50 (50% displacement of total specifically bound 125I-AII)
Procedure: Assay A: Anaiotensin II Binding Activity
Compounds of the invention were tested for ability to bind to the smooth muscle angiotensin II receptor using a rat uterine membrane preparation. Angiotensin II (AII) was purchased from Peninsula Labs. ^125 I-angiotensin II (specific activity of 2200 Ci/mmol) was purchased from Du Pont-New England Nuclear. Other chemicals were obtained from Sigma Chemical Co. This assay was carried out according to the method of Douglas et al [Endocrinology, 106, 120-124 (1980)]. Rat uterine membranes were prepared from fresh tissue. All procedures were carried out at 4° C. Uteri were stripped of fat and homogenized in phosphate-buffered saline at pH 7.4 containing 5 mM EDTA. The homogenate was centrifuged at 1500×g for 20 min., and the supernatant was recentrifuged at 100,000×g for 60 min. The pellet was resuspended in buffer consisting of 2 mM EDTA and 50 mM Tris-HCl (pH 7.5) to a final protein concentration of 4 mg/ml. Assay tubes were charged with 0.25 ml of a solution containing 5 mM MgCl2, 2 mM EDTA, 0.5% bovine serum albumin, 50 mM Tris-HCl, pH 7.5 and ^125 I-AII (approximately 10^5 cpm) in the absence or in the presence of unlabelled ligand. The reaction was initiated by the addition of membrane protein and the mixture was incubated at 25° C. for 60 min. The incubation was terminated with ice-cold 50 mM Tris-HDl (pH 7.5) and the mixture was filtered to separate membrane-bound labelled peptide from the free ligand. The incubation tube and filter were washed with ice-cold buffer. Filters were assayed for radioactivity in a Micromedic gamma counter. Nonspecific binding was defined as binding in the presence of 10 μM of unlabelled AII. Specific binding was calculated as total binding minus nonspecific binding. The receptor binding affinity of an AII antagonist compound was indicated by the concentration (IC50) of the tested AII antagonist which gives 50% displacement of the total specifically bound ^125 I-AII from the high affinity AII receptor. Binding data were analyzed by a nonlinear least-squares curve fitting program.

[2] = first of two rabbits, read-out: pA2 (first value) (converted)
[3] = second of two rabbits, read-out: pA2 (converted)

Row | SMILES | angiotensin II antagonist activity (angiotensin II receptor) | Duration (of inhibition of AII pressor response) (pressor response to AII) | inhibition in vivo at 3 mg/kg (pressor response to AII) | Kb (rabbit aortic rings; [2]) | Kb (rabbit aortic rings; [3]) | pIC50 [1] | residual agonist activity (angiotensin II receptor)
1 | CCCCc1nc(Cl)c(CC(=O)O)n1Cc1ccccc1[N+](=O)[O-] [2-butyl-4-chloro-1-(2-nitrobenzyl)imidazole-5-acetic acid] | specific competitive angiotensin II antagonist activity |  |  |  |  |  | 
2 | CCCCc1nc(Cl)c(CC(=O)O)n1Cc1ccccc1Cl [2-n-butyl-4-chloro-1-(2-chlorobenzyl)imidazole-5-acetic acid] | specific competitive angiotensin II antagonist activity |  |  |  |  |  | 
3 | CCCCc1nc(C(F)(F)CCC)nn1Cc1ccc(-c2ccccc2-c2nnn[nH]2)nc1 [Example 9, 5-[2-[5-[[3-(1,1-difluorobutyl)-5-butyl-1H-1,2,4-triazol-1-yl)methyl]-2-pyridinyl]phenyl]-1H-tetrazole] |  | 180 min | 20% | 5.5 nM | 3.89 nM | 8.03 | 
4 | CCCCc1nc(C(F)(F)CCC)n(Cc2ccc(-c3ccccc3-c3nnn[nH]3)nc2)n1 [Example 10, 5-[2-[5-[[3-butyl-5-(1,1-difluorobutyl)-1H-1,2,4-triazol-1-yl)methyl]-2-pyridinyl]phenyl]-1H-tetrazole] |  |  | 10% | 20.9 nM | 31.6 nM | 7.70 | 
5 | CCCCc1nc(CC(C)(C)C)nn1Cc1ccc(-c2ccccc2-c2nnn[nH]2)nc1 [Example 11, 5-[2-[5-[[3-neopentyl-5-butyl-1H-1,2,4-triazol-1-yl)methyl]-2-pyridinyl]phenyl]-1H-tetrazole] |  | > 180 min | 20% |  |  | 8.36 | 
6 | CCCCc1nc(CC(C)(C)C)n(Cc2ccc(-c3ccccc3-c3nnn[nH]3)nc2)n1 [Example 12, 5-[2-[5-[(3-butyl-5-neopentyl-1H-1,2,4-triazol-1-yl)methyl]-2-pyridinyl]phenyl]-1H-tetrazole] |  |  | 0% |  |  | 7.37 | 
7 | CCCCc1nc(C(=O)N(C)C(C)(C)C)nn1Cc1ccc(-c2ccccc2-c2nnn[nH]2)nc1 [Example 17, 5-[2-[5-[[3-(N-methyl-N-tertbutylamido)-5-butyl-1H-1,2,4-triazol-1-yl)methyl]-2-pyridinyl]phenyl]-1H-tetrazole] |  | > 180 min | 20% | 24.5 nM | 34.7 nM | 7.92 | 
8 | CCCCc1nc(C(=O)N(C)C(C)(C)C)n(Cc2ccc(-c3ccccc3-c3nnn[nH]3)nc2)n1 [Example 18, 5-[2-[5-[[3-butyl-5-(N-methyl-N-tertbutylamido)-1H-1,2,4-triazol-1-yl)methyl]-2-pyridinyl]phenyl]-1H-tetrazole] |  | > 180 min | 30% | 3.72 nM | 16.6 nM | 8.39 | 
9 | CCCCc1nc(-c2ccccc2Cl)nn1Cc1ccc(-c2ccccc2-c2nnn[nH]2)nc1 [Example 29, 5-[2-[5-[[3-(2-chlorophenyl)-5-butyl-1H-1,2,4-triazol-1-yl)methyl]-2-pyridinyl]phenyl]-1H-tetrazole] |  | > 180 min | 25% |  |  | 7.60 | 
10 | CCCCc1nc(-c2ccccc2Cl)n(Cc2ccc(-c3ccccc3-c3nnn[nH]3)nc2)n1 [Example 30, 5-[2-[5-[[3-butyl-5-(2-chlorophenyl)-1H-1,2,4-triazol-1-yl)methyl]-2-pyridinyl]phenyl]-1H-tetrazole] |  |  | 0% |  |  | 6.28 | 
11 | CNCC(=O)N[C@@H](CCCN=C(N)N)C(=O)N[C@H](C(=O)N[C@@H](Cc1ccc(O)cc1)C(=O)N[C@H](C(=O)N[C@@H](Cc1cnc[nH]1)C(=O)N1CCC[C@H]1C(=O)N[C@@H](C)C(=O)O)C(C)C)C(C)C [Saralasin] |  |  |  |  |  |  | significant residual agonist activity
